From US8759361B2, “2-phenoxy pyrimidinone analogues” (Neurogen Corporation, priority 2006, dated 2014)

biological target: T1, human capsaicin receptor (Homo sapiens, UniProt Q8NER1); test: Calcium mobilization assay, determination of antagonist activity (Example 6); format: cell-based; conditions: cells expressing human capsaicin receptor, capsaicin-induced fluorescence response; read-out: IC50
T1 construct: expressed in transfected cells
Procedure: A cDNA encoding full length human capsaicin receptor (SEQ ID NO:1, 2 or 3 of U.S. Pat. No. 6,482,611) is subcloned in the plasmid pBK-CMV (Stratagene, La Jolla, Calif.) for recombinant expression in mammalian cells.
Human embryonic kidney (HEK293) cells are transfected with the pBK-CMV expression construct encoding the full length human capsaicin receptor using standard methods. The transfected cells are selected for two weeks in media containing G418 (400 μg/ml) to obtain a pool of stably transfected cells. Independent clones are isolated from this pool by limiting dilution to obtain clonal stable cell lines for use in subsequent experiments.
Cells transfected with expression plasmids (as described in Example 4) and thereby expressing human capsaicin receptor are seeded and grown to 70-90% confluency in FALCON black-walled, clear-bottomed 96-well plates (#3904, BECTON-DICKINSON, Franklin Lakes, N.J.). The culture medium is emptied from the 96 well plates and FLUO-3 AM calcium sensitive dye (Molecular Probes, Eugene, Oreg.) is added to each well (dye solution: 1 mg FLUO-3 AM, 440 μL DMSO and 440 μl 20% pluronic acid in DMSO, diluted 1:250 in Krebs-Ringer HEPES (KRH) buffer (25 mM HEPES, 5 mM KCl, 0.96 mM NaH2PO4, 1 mM MgSO4, 2 mM CaCl2, 5 mM glucose, 1 mM probenecid, pH 7.4), 50 μl diluted solution per well). Plates are covered with aluminum foil and incubated at 37° C. for 1-2 hours in an environment containing 5% CO2. After the incubation, the dye is emptied from the plates, and the cells are washed once with KRH buffer, and resuspended in KRH buffer.
To measure the ability of a test compound to agonize or antagonize a calcium mobilization response in cells expressing capsaicin receptors to capsaicin or other vanilloid agonist, the EC50 of the agonist capsaicin is first determined. An additional 20 μl of KRH buffer and 1 μl DMSO is added to each well of cells, prepared as described above. 100 μl capsaicin in KRH buffer is automatically transferred by the FLIPR instrument to each well. Capsaicin-induced calcium mobilization is monitored using either FLUOROSKAN ASCENT (Labsystems; Franklin, Mass.) or FLIPR (fluorometric imaging plate reader system; Molecular Devices, Sunnyvale, Calif.) instruments. Data obtained between 30 and 60 seconds after agonist application are used to generate an 8-point concentration response curve, with final capsaicin concentrations of 1 nM to 3 μM. KALEIDAGRAPH software (Synergy Software, Reading, Pa.) is used to fit the data to the equation: y=a*(1/(1+(b/x)^c)) to determine the 50% excitatory concentration (EC50) for the response. In this equation, y is the maximum fluorescence signal, x is the concentration of the agonist or antagonist (in this case, capsaicin), a is the Emax, b corresponds to the EC50 value and c is the Hill coefficient. Determination of Agonist Activity
Test compounds are dissolved in DMSO, diluted in 20 μl KRH buffer so that the final concentration of test compounds in the assay well is between 1 μM and 5 μM, and added to cells prepared as described above. The 96 well plates containing prepared cells and test compounds are incubated in the dark, at room temperature for 0.5 to 6 hours. It is important that the incubation not continue beyond 6 hours. Just prior to determining the fluorescence response, 100 μl capsaicin in KRH buffer at twice the EC50 concentration determined as described above is automatically added by the FLIPR instrument to each well of the 96 well plate for a final sample volume of 200 μl and a final capsaicin concentration equal to the EC50. The final concentration of test compounds in the assay wells is between 1 μM and 5 μM. […] The concentration of antagonist required to provide a 50% decrease, relative to the response observed in the presence of capsaicin and without antagonist, is the IC50 for the antagonist, and is preferably below 1 micromolar, 100 nanomolar, 10 nanomolar or 1 nanomolar.

T1 sequence (Q8NER1 whole entry): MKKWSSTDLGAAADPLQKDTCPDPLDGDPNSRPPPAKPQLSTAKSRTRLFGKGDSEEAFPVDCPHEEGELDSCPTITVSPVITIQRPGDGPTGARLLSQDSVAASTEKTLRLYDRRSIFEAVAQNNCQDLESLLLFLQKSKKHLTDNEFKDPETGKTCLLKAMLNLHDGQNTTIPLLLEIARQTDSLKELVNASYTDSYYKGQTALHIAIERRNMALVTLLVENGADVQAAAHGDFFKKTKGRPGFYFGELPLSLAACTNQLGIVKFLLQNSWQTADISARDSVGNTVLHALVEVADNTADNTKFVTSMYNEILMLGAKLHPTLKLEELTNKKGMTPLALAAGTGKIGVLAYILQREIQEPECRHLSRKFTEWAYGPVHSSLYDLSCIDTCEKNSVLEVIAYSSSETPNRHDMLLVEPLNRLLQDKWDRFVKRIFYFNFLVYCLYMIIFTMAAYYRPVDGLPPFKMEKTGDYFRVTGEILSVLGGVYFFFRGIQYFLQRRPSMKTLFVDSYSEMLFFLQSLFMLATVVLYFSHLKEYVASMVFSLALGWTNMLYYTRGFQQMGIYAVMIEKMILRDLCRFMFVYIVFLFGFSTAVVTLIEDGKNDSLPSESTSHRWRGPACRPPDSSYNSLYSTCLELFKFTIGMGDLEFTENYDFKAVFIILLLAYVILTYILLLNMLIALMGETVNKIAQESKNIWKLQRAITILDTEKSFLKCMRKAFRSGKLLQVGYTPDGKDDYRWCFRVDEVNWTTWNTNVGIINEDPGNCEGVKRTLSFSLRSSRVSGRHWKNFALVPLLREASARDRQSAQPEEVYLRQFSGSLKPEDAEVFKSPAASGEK

Question: Which IC50 does the source give for Cn1cnc2c(=O)n(-c3ccc(Cl)cc3)c(Oc3c(F)cc(F)cc3F)nc21 [Compound 8, 1-(4-chlorophenyl)-9-methyl-2-(2,4,6-trifluorophenoxy)-1,9-dihydro-6H-purin-6-one] here?
Answer: ≤ 0.1 µM

Question: For CCn1cnc2c(=O)n(-c3ccc(F)cc3)c(Oc3c(F)cc(F)cc3F)nc21 [Compound 9, 9-ethyl-1-(4-fluorophenyl)-2-(2,4,6-trifluorophenoxy)-1,9-dihydro-6H-purin-6-one], which IC50 is on record?
Answer: ≤ 0.1 µM

Question: How did the IC50 turn out when Cn1cnc2c(=O)n(-c3ccc(Cl)cc3)c(Oc3ccc(F)c(F)c3F)nc21 [Compound 10, 1-(4-chlorophenyl)-9-methyl-2-(2,3,4-trifluorophenoxy)-1,9-dihydro-6H-purin-6-one] was run?
Answer: ≤ 0.1 µM

Question: Which IC50 does the source give for CCn1cnc2c(=O)n(-c3ccc(F)cc3)c(Oc3ccc(F)c(F)c3F)nc21 [Compound 11, 9-ethyl-1-(4-fluorophenyl)-2-(2,3,4-trifluorophenoxy)-1,9-dihydro-6H-purin-6-one] here?
Answer: ≤ 0.1 µM

Question: Which IC50 does the source give for Cn1cnc2c(=O)n(-c3ccc(F)cc3)c(Oc3c(F)cc(F)cc3F)nc21 [Compound 12, 1-(4-fluorophenyl)-9-methyl-2-(2,4,6-trifluorophenoxy)-1,9-dihydro-6H-purin-6-one] here?
Answer: ≤ 0.1 µM

Question: How did the IC50 turn out when Cn1cnc2c(=O)n(-c3ccc(F)cc3)c(Oc3cc(F)cc(F)c3F)nc21 [Compound 20, 1-(4-fluorophenyl)-9-methyl-2-(2,3,5-trifluorophenoxy)-1,9-dihydro-6H-purin-6-one] was run?
Answer: ≤ 0.1 µM

Question: With Cn1cnc2c(=O)n(-c3ccc(Cl)cc3)c(Oc3cccc(F)c3F)nc21 [Compound 21, 1-(4-chlorophenyl)-2-(2,3-difluorophenoxy)-9-methyl-1,9-dihydro-6H-purin-6-one] as the compound, how does the IC50 read?
Answer: ≤ 0.1 µM

Question: How did the IC50 turn out when Cn1cnc2c(=O)n(-c3ccc(F)cc3)c(Oc3ccc(F)cc3Cl)nc21 [Compound 22, 2-(2-chloro-4-fluorophenoxy)-1-(4-fluorophenyl)-9-methyl-1,9-dihydro-6H-purin-6-one] was run?
Answer: ≤ 0.1 µM

Question: With Cn1cnc2c(=O)n(-c3ccc(Cl)cc3)c(Oc3ccc(F)cc3Cl)nc21 [Compound 23, 2-(2-chloro-4-fluorophenoxy)-1-(4-chlorophenyl)-9-methyl-1,9-dihydro-6H-purin-6-one] as the compound, how does the IC50 read?
Answer: ≤ 0.1 µM

Question: How did the IC50 turn out when Cn1cnc2c(=O)n(-c3ccc(F)cc3)c(Oc3c(F)ccc(F)c3F)nc21 [Compound 24, 1-(4-fluorophenyl)-9-methyl-2-(2,3,6-trifluorophenoxy)-1,9-dihydro-6H-purin-6-one] was run?
Answer: ≤ 0.1 µM

Question: With Cn1cnc2c(=O)n(-c3ccc(Cl)cc3)c(Oc3c(F)ccc(F)c3F)nc21 [Compound 25, 1-(4-chlorophenyl)-9-methyl-2-(2,3,6-trifluorophenoxy)-1,9-dihydro-6H-purin-6-one] as the compound, how does the IC50 read?
Answer: ≤ 0.1 µM

Question: For CCn1cnc2c(=O)n(-c3ccc(F)cc3)c(Oc3cc(F)cc(F)c3F)nc21 [Compound 26, 9-ethyl-1-(4-fluorophenyl)-2-(2,3,5-trifluorophenoxy)-1,9-dihydro-6H-purin-6-one], which IC50 is on record?
Answer: ≤ 0.1 µM

Question: Cn1cnc2c(=O)n(-c3ccc(Cl)cc3)c(Oc3cc(F)cc(F)c3F)nc21 [Compound 27, 1-(4-chlorophenyl)-9-methyl-2-(2,3,5-trifluorophenoxy)-1,9-dihydro-6H-purin-6-one] was tested. Which IC50 did it give?
Answer: ≤ 0.1 µM

Question: With Cn1cnc2c(=O)n(-c3ccc(Cl)cc3)c(Oc3ccc(C#N)c(F)c3F)nc21 [Compound 28, 4-{[1-(4-chlorophenyl)-9-methyl-6-oxo-6,9-dihydro-1H-purin-2-yl]oxy}-2,3-difluorobenzonitrile] as the compound, how does the IC50 read?
Answer: ≤ 0.1 µM

Question: How did the IC50 turn out when Cn1cnc2c(=O)n(-c3ccc(F)cc3)c(Oc3ccc(C#N)c(F)c3F)nc21 [Compound 29, 2,3-difluoro-4-{[1-(4-fluorophenyl)-9-methyl-6-oxo-6,9-dihydro-1H-purin-2-yl]oxy}benzonitrile] was run?
Answer: ≤ 0.1 µM

Question: Cn1cnc2c(=O)n(-c3ccc(Cl)cc3)c(Oc3cc(F)c(F)c(F)c3)nc21 [Compound 30, 1-(4-chlorophenyl)-9-methyl-2-(3,4,5-trifluorophenoxy)-1,9-dihydro-6H-purin-6-one] was tested. Which IC50 did it give?
Answer: ≤ 0.1 µM

Question: With O=c1c2ncccc2nc(Oc2ccc(F)cc2F)n1-c1ccc(F)cc1 [Compound 31, 2-(2,4-difluorophenoxy)-3-(4-fluorophenyl)pyrido[3,2-d]pyrimidin-4(3H)-one] as the compound, how does the IC50 read?
Answer: ≤ 0.1 µM

Question: For O=c1c2ncccc2nc(Oc2ccc(F)c(F)c2F)n1-c1ccc(F)cc1 [Compound 32, 3-(4-fluorophenyl)-2-(2,3,4-trifluorophenoxy)pyrido[3,2-d]pyrimidin-4(3H)-one], which IC50 is on record?
Answer: ≤ 0.1 µM

Question: Which IC50 does the source give for O=c1c2ncsc2nc(Oc2ccc(F)c(F)c2F)n1-c1ccc(F)cc1 [Compound 33, 6-(4-fluorophenyl)-5-(2,3,4-trifluorophenoxy)[1,3]thiazolo[5,4-d]pyrimidin-7(6H)-one] here?
Answer: ≤ 0.1 µM

Question: With O=c1c2ncsc2nc(Oc2cccc(F)c2F)n1-c1ccc(F)cc1 [Compound 34, 5-(2,3-difluorophenoxy)-6-(4-fluorophenyl)[1,3]thiazolo[5,4-d]pyrimidin-7(6H)-one] as the compound, how does the IC50 read?
Answer: ≤ 0.1 µM

Question: With O=c1c2ncsc2nc(Oc2cc(F)c(F)cc2F)n1-c1ccc(F)cc1 [Compound 35, 6-(4-fluorophenyl)-5-(2,4,5-trifluorophenoxy)[1,3]thiazolo[5,4-d]pyrimidin-7(6H)-one] as the compound, how does the IC50 read?
Answer: ≤ 0.1 µM

Question: For O=c1c2ncsc2nc(Oc2cc(F)cc(F)c2F)n1-c1ccc(F)cc1 [Compound 36, 6-(4-fluorophenyl)-5-(2,3,5-trifluorophenoxy)[1,3]thiazolo[5,4-d]pyrimidin-7(6H)-one], which IC50 is on record?
Answer: ≤ 0.1 µM

Question: Which IC50 does the source give for O=c1c2ncsc2nc(Oc2cc(F)c(F)c(F)c2)n1-c1ccc(F)cc1 [Compound 37, 6-(4-fluorophenyl)-5-(3,4,5-trifluorophenoxy)[1,3]thiazolo[5,4-d]pyrimidin-7(6H)-one] here?
Answer: ≤ 0.1 µM

Question: How did the IC50 turn out when O=c1c2ncsc2nc(Oc2ccc(Cl)cc2F)n1-c1ccc(F)cc1 [Compound 38, 5-(4-chloro-2-fluorophenoxy)-6-(4-fluorophenyl)[1,3]thiazolo[5,4-d]pyrimidin-7(6H)-one] was run?
Answer: ≤ 0.1 µM

Question: With Cn1cnc2c(=O)n(-c3ccc(Cl)cc3)c(Oc3cccc(C(F)(F)F)c3F)nc21 [Compound 42, 1-(4-chlorophenyl)-2-[2-fluoro-3-(trifluoromethyl)phenoxy]-9-methyl-1,9-dihydro-6H-purin-6-one] as the compound, how does the IC50 read?
Answer: ≤ 0.1 µM

Question: Cn1cnc2c(=O)n(-c3ccc(F)cc3)c(Oc3cccc(C(F)(F)F)c3F)nc21 [Compound 43, 1-(4-fluorophenyl)-2-[2-fluoro-3-(trifluoromethyl)phenoxy]-9-methyl-1,9-dihydro-6H-purin-6-one] was tested. Which IC50 did it give?
Answer: ≤ 0.1 µM

Question: How did the IC50 turn out when O=c1c2ncsc2nc(Oc2cc(F)cc(C(F)(F)F)c2)n1-c1ccc(F)cc1 [Compound 44, 6-(4-fluorophenyl)-5-[3-fluoro-5-(trifluoromethyl)phenoxy][1,3]thiazolo[5,4-d]pyrimidin-7(6H)-one] was run?
Answer: ≤ 0.1 µM

same assay, conditions: cells expressing human capsaicin receptor, capsaicin-induced fluorescence response; read-out: IC50 determined as described in Example 6

Question: For Cn1cnc2c(=O)n(-c3ccc(Br)cc3)c(Oc3ccc(F)c(F)c3F)nc21 [Compound 1, 1-(4-Bromophenyl)-9-methyl-2-(2,3,4-trifluorophenoxy)-1,9-dihydro-6H-purin-6-one], which IC50 is on record?
Answer: ≤ 0.1 µM

Question: How did the IC50 turn out when Cn1cnc2c(=O)n(-c3ccc(Cl)nc3)c(Oc3cc(F)c(F)c(F)c3)nc21 [Compound 6, 1-(6-Chloropyridin-3-yl)-9-methyl-2-(3,4,5-trifluorophenoxy)-1H-purin-6(9H)-one] was run?
Answer: ≤ 0.1 µM

Question: With Cn1cnc2c(=O)n(-c3ccc(C#N)nc3)c(Oc3cc(F)c(F)c(F)c3)nc21 [Compound 7, 5-(9-Methyl-6-oxo-2-(3,4,5-trifluorophenoxy)-6H-purin-1(9H)-yl)picolinonitrile] as the compound, how does the IC50 read?
Answer: ≤ 0.1 µM
